Data from patent US20240245677A1, “SELECTED COMPOUNDS FOR TARGETED DEGRADATION OF BRD9” (C4 THERAPEUTICS, INC., priority 2021, published 2024).

Key:
[1] = Crystallization at room temperature by slow evaporation; format: physicochemical
Procedure: Based on approximate solubility results, about 10 mg of Compound 1 free form Pattern E was dissolved in suitable amount of solvents. Obtained suspensions or solutions were centrifuged. […] Solid residues were examined for their polymorphic form.

[2] = system: HSSYII synovial sarcoma cell line; experiment: Global proteomics in HSSYII cells; format: cell-based, human; details: 100 nM, 4 hours
Procedure: Global protein expression was performed in Yamato-SS and HSSYII synovial sarcoma cell lines after 4-hour treatment with Compound 1 (100 nM). The Yamato-SS cell line was provided by the RIKEN BRC through the National BioResource Project of the MEXT/AMED, Japan (cat #RCB3577), and the HS-SY-II cell line was provided by the RIKEN BRC through the National BioResource Project of the MEXT/AMED, Japan (cat #RCB2231).
Both Yamato-SS and HSSYII cell lines were treated with Compound 1 at 100 nM for 4 hours and analyzed by multiplexed quantitative proteomics. The x-axis illustrates the totality of the proteomics data and is labeled as fold change (FC) of Compound 1 vs vehicle in a Log 2 transformation scale. The statistical significance (T-test of treated vs. DMSO with Benjamini-Hochberg correction applied) of the observed changes is shown in the y-axis as negative Log 10 of the P-value. The horizontal dashed line marks the statistical significance (P-value ≤0.001) and the vertical line marks fold change ≥2.

[3] = Mouse Hepatocyte Stability Assay; format: in vitro ADME; details: CD-1, cryopreserved hepatocytes
Procedure: (§1) The metabolic stability of Compound 1 was evaluated using cryopreserved hepatocytes from mice, rats, dogs, cynomolgus monkeys, and humans.
(§2) 50 μL of 1 mM intermediate solutions for each test compound was prepared by adding 5 μL of 10 mM stock solution to 45 μL of a 1:1 mixture of water and acetonitrile. A 2 μM working stocks for each test compound were prepared in incubation media, InvitroGRO™ KHB (Bio IVT, Westbury, NY, USA), by adding 2 μL of 1 mM intermediate stock to 998 μL of incubation media.
(§3) To thaw the hepatocytes, InvitroGRO™ HT thawing medium (BioIVT, Westbury, NY, USA) was prewarmed to 37° C., and 48 mL of warmed thawing medium was transferred to a sterile 50 mL conical tube. The hepatocyte vial was removed from the liquid nitrogen Dewar, and gently thawed in a water bath at 37° C. for 1-2 minutes, then the contents of the vial were emptied into a conical tube with prewarmed InvitroGRO HT medium. 1 mL of prewarmed InvitroGRO HT medium was added to each emptied hepatocyte vial to resuspend any remaining cells, and the contents were pipetted into the hepatocyte suspension. The tube containing the hepatocyte suspension was centrifuged at 50*g for 5 minutes. The supernatant was removed carefully, and the remaining pellet was resuspended by adding 1 mL of incubation media, InvitroGRO KHB, and gently shaking until there were no clumps.
(§4) Cell viability was determined using the trypan blue method. 25 μL of hepatocyte cell suspension was added to a trypan blue (TB) solution (containing 775 μL InvitroGRO KHB and 200 μL of Trypan Blue). Cell count was taken using a hemacytometer.
(§5) For mouse hepatocytes, 200 μL of hepatocytes (0.8×10^6 cells/mL) were added to the wells of a 48 well plate (Catalog No. 92048, TPP Techno Plastic Products AG, Trasadingen, Switzerland) and pre-incubated for 30 minutes at 37° C. For rat, dog, monkey, […], 200 μL of hepatocytes (2×10^6 cells/mL) were added to the wells of a 48 well plate (Catalog No. 92048, TPP Techno Plastic Products AG, Trasadingen, Switzerland) and pre-incubated for 30 minutes at 37° C.
(§6) For all species of hepatocytes, once the pre-incubation period was complete, 200 μL of 2 μM working stock of test compound was added to the wells of the plate, and the plate was vortexed on a Vibramax™ 100 (P/N 544-21200-00, Heidolph Instruments GmbH & Co. KG, Schwabach, Germany) at 500 rpm in a 37° C. CO2 incubator (Model No. 51026280, ThermoFisher Scientific, Waltham, MA, USA). At each time point of 0, 15, 30, 60, 90, and 120 minutes, 50 μL of incubation mixture was precipitated with 200 μL of acetonitrile containing internal standard.
(§7) At the end of the experiment, the samples were centrifuged at 4000 rpm for 10 minutes. The supernatant was collected and diluted with an equal amount of water, and vortexed for 5 minutes at 900 rpm in MixMate® (Model No. 5353, Eppendorf SE, Hamburg, Germany).
(§8) The supernatant samples were submitted for LC-MS/MS analysis.
(§9) Calculations of the results included the following: […]

[4] = system: cryopreserved hepatocytes from CD-1 mice; experiment: Mouse Hepatocyte Stability Assay; format: in vitro ADME
Procedure: as §1, §2, §3, §4, §5, §6, §7, §8, §9

## COc1cc(-c2cn(C)c(=O)c(C)c2C)cc(OC)c1CN1CC[C@H](N2CCN(c3ccc(N[C@H]4CCC(=O)NC4=O)cc3F)CC2)C(F)(F)C1 [Compound 1, (S)-3-((4-(4-((S)-1-(2,6-dimethoxy-4-(1,4,5-trimethyl-6-oxo-1,6-dihydropyridin-3-yl)benzyl)-3,3-difluoropiperidin-4-yl)piperazin-1-yl)-3-fluorophenyl)amino)-piperidine-2,6-dione]
[1]; slow evaporation at room temperature, 1,4-dioxane
  Comments: Gel-like sample
[1]; slow evaporation at room temperature, 2-MeTHF
  Comments: Gel-like sample
[1]; slow evaporation at room temperature, Acetonitrile
  XRPD: Pattern A
[1]; slow evaporation at room temperature, Ethanol
  Comments: Gel-like sample
[1]; slow evaporation at room temperature, Ethyl acetate
  XRPD: Pattern F
[1]; slow evaporation at room temperature, THF
  Comments: Jelly-like sample
[2]
  BRD9 protein level decrease vs DMSO control: 66.7%
[2]; Homo sapiens, read-out: BRD9 Emax
  Emax at 0.1 µM: 33.3%
[3]
  half-life at 1 µM: > 2 h
[3]; read-out: CL int cells
  hepatocyte CLint at 1 µM: 4.26 µL/min/1e6 cells
[4]
  CLh int in vivo: 44.94 mL/min/Kg body wt.
  CLhb scaled well stirred: 30.0 mL/min/kg body wt.
